Experimental data published in US10000469B2, “Heat shock protein 70 (hsp-70) receptor ligands” (Duke University, priority 2014, dated 2018).

How the values were obtained:
MCF7 = test: Cell proliferation, MCF7; type: cell-based; conditions: MCF7
Experimental: (§1) Cell Proliferation: Cell proliferation was determined using a Hoechst stain (Sigma, St. Louis, Mo.) to quantify DNA. 5,000 cells of the designated cell line were plated in 96 well plates and treated the next day, designated as time point 0, with the indicated concentration of the specified compound maintained for the duration of the assay. At the indicated time points the media was removed and plated frozen at −80° C. Double distilled H2O was then added and the plates were incubated at 37° C. for 1 hour. After 1 hour the plates were frozen at −80° C. After freezing the plates were thawed and Hoechst stain was diluted 1:1000 in THE buffer (10 mM Tris, 2M NaCl, 1 mM Na2EDTA). The final fluorescence was measured on the Victor X2 plate reader at 355/460 nm, and cell proliferation was determined with the formula: % Cell Proliferation=100×(Sample fluorescence−background fluorescence)/(Control fluorescence−background fluorescence).

Hsp70 = molecular target: T1, Hsp70 (Sus scrofa, UniProt P34930); test: Endogenous Hsp70 elution from ATP resin, pig bladder lysate; type: binding; conditions: few non-specific eluted proteins
T1 construct: from tissue; host or cells: pig bladder
T1 sequence (P34930 whole entry): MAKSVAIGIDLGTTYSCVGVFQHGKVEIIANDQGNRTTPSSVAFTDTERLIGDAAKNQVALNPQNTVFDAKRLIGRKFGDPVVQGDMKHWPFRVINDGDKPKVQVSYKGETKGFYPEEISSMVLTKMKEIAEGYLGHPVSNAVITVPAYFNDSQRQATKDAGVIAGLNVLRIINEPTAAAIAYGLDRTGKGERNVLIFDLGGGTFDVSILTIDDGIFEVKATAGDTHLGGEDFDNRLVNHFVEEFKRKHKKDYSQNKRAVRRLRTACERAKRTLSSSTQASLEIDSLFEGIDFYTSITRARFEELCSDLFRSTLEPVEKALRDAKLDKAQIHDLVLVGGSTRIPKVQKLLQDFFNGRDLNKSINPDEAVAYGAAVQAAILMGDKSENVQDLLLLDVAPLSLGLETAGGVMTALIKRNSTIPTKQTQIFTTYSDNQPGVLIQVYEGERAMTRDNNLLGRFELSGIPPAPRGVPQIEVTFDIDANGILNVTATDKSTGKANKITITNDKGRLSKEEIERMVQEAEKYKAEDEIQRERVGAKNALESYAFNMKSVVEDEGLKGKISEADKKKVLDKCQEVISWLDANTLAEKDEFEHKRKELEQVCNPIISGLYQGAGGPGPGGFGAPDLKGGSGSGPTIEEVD
Experimental: Endogenous Hsp70 elution: Pig bladder tissue was used for eluting endogenous Hsp70 from the γ-phosphate ATP sepharose resin. Tissue was homogenized in liquid nitrogen and stored at −80° C. until further use. Tissue mass was measured (g) and then 2.5× volume (mL) of tissue lysis buffer (50 mM HEPES, 60 mM MgCl2, 60 mM KCl, 1 mM DTT) was added and homogenized on a laboratory blender. A total of 25 grams of homogenized tissue was typically used for each experiment. Subsequent to lysis, the tissue was centrifuged at 35,000 RPM in a Beckman Type 45 Ti rotor (Brea, Calif.) for 45 minutes at 4° C., and then filtered over silica wool. The filtered supernatant was then added to the γ-phosphate ATP sepharose resin and washed as previously described in the FLECS screen. Compounds were used to elute Hsp70 and the elutions were then separated by SDS-PAGE and analyzed by Western blot or the gels were visualized by silver stain.

SkBr3 = test: Cell proliferation, SkBr3; type: cell-based; conditions: SkBr3
Experimental: as §1

BT474 = test: Cell proliferation, BT474; type: cell-based
Experimental: as §1

GFP-Hsp70i = molecular target: T2, GFP-Hsp70i (Homo sapiens, UniProt P0DMV8); test: FLECS elution of GFP-Hsp70i from γ-phosphate-linked ATP resin; type: binding; conditions: compared with HS-71
T2 construct: host or cells: HEK 293T
T2 sequence (P0DMV8 whole entry): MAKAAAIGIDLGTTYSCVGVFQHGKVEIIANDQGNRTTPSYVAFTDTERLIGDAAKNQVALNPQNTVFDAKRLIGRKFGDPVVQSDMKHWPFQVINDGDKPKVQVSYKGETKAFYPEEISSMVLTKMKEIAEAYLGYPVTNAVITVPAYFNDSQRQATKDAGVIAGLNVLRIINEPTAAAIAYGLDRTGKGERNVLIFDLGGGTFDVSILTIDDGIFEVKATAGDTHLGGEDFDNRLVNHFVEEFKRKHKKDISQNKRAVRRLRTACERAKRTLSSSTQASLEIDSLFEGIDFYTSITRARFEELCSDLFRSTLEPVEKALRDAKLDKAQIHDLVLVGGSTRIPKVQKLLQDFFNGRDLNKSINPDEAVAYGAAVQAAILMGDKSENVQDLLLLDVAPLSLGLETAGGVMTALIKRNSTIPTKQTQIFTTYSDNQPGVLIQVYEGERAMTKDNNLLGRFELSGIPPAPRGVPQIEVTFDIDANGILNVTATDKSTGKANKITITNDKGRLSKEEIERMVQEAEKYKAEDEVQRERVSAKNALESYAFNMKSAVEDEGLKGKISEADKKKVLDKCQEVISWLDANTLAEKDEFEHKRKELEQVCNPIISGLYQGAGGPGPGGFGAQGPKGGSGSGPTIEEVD
Experimental: FLECS Screen: A pEGFP-tagged Hsp70i was (plasmid 15215, Addgene, Cambridge, Mass.) used in the FLECS assay and was originally cloned according to [Zeng et al. (2004). Hsp70 dynamics in vivo: effect of heat shock and protein aggregation. Journal of cell science 117, 4991-5000]. ATP used in the assay was purchased from Sigma (St. Louis, Mo.) and a 200 mM stock was prepared with low salt buffer (150 mM NaCl, 25 mM Tris, pH 7.5, 60 mM MgCl2). The γ-phosphate ATP sepharose was synthesized as previously described and stored in low salt buffer [Haystead et al. (1993). Gamma-phosphate-linked ATP-sepharose for the affinity purification of protein kinases. Rapid purification to homogeneity of skeletal muscle mitogen-activated protein kinase kinase. European journal of biochemistry/FEBS 214, 459-467]. FuGENE 6 transfection reagent (Roche, Mannheim, Germany) was used for transfection of GFP-Hsp70i into HEK 293T cells, following the manufacturer protocol. The transfection ensued for 48 hours, upon which time the cells were harvested and lysed in cell lysis buffer (150 mM NaCl, 50 mM Tris, pH 7.5, 1% Triton X-100, 1 mM EDTA, 1 mM DTT, and 1 tablet Complete Mini protease inhibitor (Roche)). Cell lysates were stored at −80° C. until further use. Upon binding the resin lysates were washed 3× with high stringency wash buffer (1 M NaCl, 25 mM Tris, pH 7.5, 60 mM MgCl2, 1 mM DTT) and 3× with low stringency wash buffer (150 mM NaCl, 25 mM Tris, pH 7.5, 60 mM MgCl2, 1 mM DTT). […]
Assembly of a focused library, consisting of 3379 purine like compounds, was described previously [Carlson et al. (2013). Fluorescence Linked Enzyme Chemoproteomic Strategy for Discovery of a Potent and Selective DAPK1 and ZIPK Inhibitor. […] The lysates were eluted from the filter plate onto a catch plate by centrifugation and the fluorescence of the eluates was measured. […] Next, the presence of GFP-Hsp70i in the eluates from the 197 primary hits was determined by Western blot. […]

## CCCn1c(NC(=O)[C@H]2CCCN(c3cnccn3)C2)nc2ccccc21 [HS-72, (S)—N-(1-propyl-1H-benzo[d]imidazol-2-yl)-1-(pyrazin-2-yl)piperidine-3-carboxamide]
MCF7
  cell proliferation: inhibits proliferation
  cell proliferation, combination with HS-10: additive effect
MCF7; listed as HS72
  cell proliferation, combination with HS-10: synergism
Hsp70
  elution of Hsp70 from ATP resin: elutes Hsp70
SkBr3
  cell proliferation: inhibits proliferation
  cell proliferation, combination with HS-10: additive effect
SkBr3; listed as HS72
  cell proliferation, combination with HS-10: synergism
BT474
  cell proliferation: inhibits proliferation
GFP-Hsp70i
  elution of GFP-Hsp70 from the ATP resin, S vs. R enantiomer: more effective
